Source: patent US20110177950A1, “Imidazole and Triazole Compounds, Their Use and Agents Containing the Same” (priority 2008, published 2011)

Key:
Botrytis cinerea = experiment: Comparison with the prior art: C1 activity against gray mold pathogen in the microtiter test; format: cell-based; conditions: day 7 after inoculation, 405 nm
Phakopsora pachyrhizi = experiment: Curative activity against soybean rust (greenhouse, Example G1); format: in vivo; conditions: soybean seedlings, curative spray 300 ppm two days after inoculation, assessed after further 10 days; untreated 90% infected
Procedure: The active compounds were prepared separately as a stock solution comprising 25 mg of active compound which was made up to 10 ml using a mixture of acetone and/or DMSO and the emulsifier Uniperol® EL (wetting agent having emulsifying and dispersing action based on ethoxylated alkylphenols) in a volume ratio of solvent/emulsifier of 99/1. The mixture was then made up to 100 ml with water. This stock solution was diluted with the solvent/emulsifier/water mixture described to the active compound concentration stated below. Alternatively, the active compounds were used as commercially finished formulation and diluted with water to the stated active compound concentration.
Curative activity against soybean rust caused by Phakopsora pachyrhizi Leaves of potted soybean seedlings were inoculated with a spore suspension of soybean rust (Phakopsora pachyrhizi). The pots were then placed in a chamber with high atmospheric humidity (90 to 95%) and at 23 to 27° C. for 24 hours. During this time, the spores germinated and the germ tubes penetrated into the leaf tissue. The infected plants were then cultivated further in a greenhouse at temperatures between 23 and 27° C. and 60 to 80% relative atmospheric humidity. […] The extent of the rust fungus development on the leaves was then determined visually in % infection.

Structure (SMILES)	Growth (%) at 8 ppm C1 (Botrytis cinerea)	rust fungus development on the leaves in % infection (Phakopsora pachyrhizi)
CC(C)(C)C(O)C(C/C=C/c1ccccc1F)n1cncn1 (stereo not drawn)	16%	–
CC(=CCC(C(O)C(C)(C)C)n1cncn1)c1ccc(F)cc1F (mixture of isomers) [I.A9]	–	0%
CC(C)(C)C(O)C(C/C=C/c1ccccc1)n1cncn1 (stereo not drawn) [reference compound]	84%	–
